Experimental data reported in patent publication US20090130064A1, “DIFFERENTIATION OF STEM CELLS AND STABILIZATION OF PHENOTYPICAL PROPERTIES OF PRIMARY CELLS” (priority 2004, published 2009).

Key:
hMSC [1] = test: LDH-leakage cytotoxicity in hMSC; assay type: cell-based, human
Method: (§1) Low-density hMSC (CD45^−, Thy^+) were cultivated at 21.5 10^3 cells cm^2 on 1 mg/ml collagen gel type I matrix in the presence of liver-specific (LSP) cytokines, added either as a cocktail [basal medium supplemented with 10 ng/ml FGF-4 (fibroblast growth factor type 4), 20 ng/ml HGF (hepatic growth factor) (all from R&D), 1×ITS (insulin, transferrin, selenious acid) and 0.05 μM Dex (dexamethasone) (all from Sigma)] or sequentially [basal medium supplemented with 10 ng/ml FGF-4, following basal media supplemented with 20 ng/ml HGF (R&D) and finally basal medium supplemented with 20 ng/ml HGF, 1×ITS and 0.05 μM Dex]. Basal medium consisted of 60% (v/v) DMEM-LG/40% (v/v) MCDB-201 supplemented with 1 mg/ml LA-BSA, 100 IU/ml penicillin, 100 μg/ml streptomycin, 0.1 mM L-ascorbic acid, 4 μg/ml nicotinamide, 27.3 mg/l sodium-pyruvate and 1.623 mM glutamin (all from Sigma). The media were changed every three days.
The assay was done with an LDH-kit (Merck 1 14869.0001; Ecoline 1S) according to the manufacturer's recommendations.

hMSC [2] = test: Albumin ELISA, ALB secretion by hMSC; assay type: cell-based, human; conditions: for ALB secreted: sequential + 1 μM TSA from day 6
Method: as §1
ALB concentrations secreted into the media were analysed by a competitive enzyme-linked immunosorbent assay (ELISA) as described (Koebe et al. Int J Artif Organs 17: 95-106, 1994). The ALB levels were normalized with respect to the media used.

CYP 1A1 = CYP 1A1 activity (ethoxyresorufin conversion) in cultured rat hepatocytes; assay type: cell-based
Excerpt: (§2) Hepatocytes were isolated from male Sprague-Dawley rats by a two-step collagenase perfusion as described (De Smet et al. In ‘Methods in Molecular Biology, Vol. 107: Cytochrome P450 Protocols’, Philips IR and Shephard E A, eds., p.p 295-301, Humana Press, Totowa, 1998). Hepatocytes were cultivated in monolayer cultures with Willam's E Medium (WE) for 7 days. […] The maintenance of differentiation characteristics was studied after 2, 4, and 7 days (D2, D4, D7) of culture.
(§3) Phase I biotransformation was assessed by means of activity measurements of the microsomal cytochrome P450 (CYP) 1A1 and 2B1/2 iso-enzymes, using standard techniques known in the art (i.e., measuring conversion of ethoxyresorufin into hydroxyresorufin for CYP 1A1 and conversion of penthoxyresorufin to hydroxyresorufin for CYP 2B1/2) (Burke et al. Drug Metab Dispos 2:583-588, 1974). Microsomes were prepared from freshly isolated and hepatocytes cultured for 7 days according to Hales et al. (Biochem Pharmacol 26:555-556, 1977).

CYP 2B1/2 = CYP 2B1/2 activity (penthoxyresorufin conversion) in cultured rat hepatocytes; assay type: cell-based
Excerpt: as §2, §3

Cx32 = Cx32 expression (immunoblotting) in rat hepatocytes; assay type: cell-based; conditions: 1 μM TSA
Method: In all conditions, the hepatocytes were cultivated as a monolayer configuration, and samples were taken at days 1, 4 and 7 (D1, D4, D7) of the cultivation time.
Proteins (25 or 50 μg) were resolved on SDS-PAGE (7.5, 10 or 12%) and blotted afterwards onto nitrocellulose membranes. After blocking with non-fatty milk, membranes were incubated with appropriate concentrations of primary and secondary antibodies (HRP labeled). Proteins were detected using the ECL detection system (Amersham Biosciences). Primary antibodies: Cx26 (Zymed, 1/250), Cx32 (Sigma, 1/500), Cx43 (Zymed, 1/100).
Hepatocytes were fixed with cold ethanol, peremeabilised with Triton X-100 (Sigma) and blocked with non-fatty milk. Following incubation with appropriate concentrations of primary and secondary antibodies (FITC or TRITC labeled), samples were mounted with DAPI-containing Vectashield (Vector Laboratories). Detection was performed by fluorescence microscopy (Leica DMR/XA).

ERK1/2 = test: Western blotting of ERK1/2 phosphorylation in synchronized hepatocytes; assay type: cell-based, rat; conditions: 50 μM + EGF; initial 30 min
Method: (§4) Total cell extracts were prepared as described previously (Papeleu et al. J Hepatol 39: 374-382, 2003) and proteins (25 or 50 μg per lane) were separated electrophoretically by SDS-PAGE and electroblotted onto nitrocellulose membranes (Amersham Pharmacia Biotech, Buckinghamshire, UK). Equal sample loading was verified by immersion of the membranes in Ponceau S. Unspecific binding sites were blocked with 5% skim milk/Tris-buffered saline. Incubations with primary antibodies were performed overnight at 4° C. under gentle shaking. Proteins were detected using the ECL detection system (Amersham Pharmacia Biotech, Buckinghamshire, UK) according to the manufacturer's recommendations.
(§5) Early cell cycle events can be triggered by distinct signalling pathways, activated by EGF, namely: the MEK/ERK, the mTOR/p70S6k, and the Pak1 pathways. Eventually, they all converge on cyclin D1 and play thus an essential role in the regulation of this critical cell cycle protein. […] This was done by culturing the hepatocytes in the absence of EGF for 48 hours, consequently stimulating them with EGF and exposing them to 50 μM 4-Me2N-BAVAH for 0.5, 1 and 3 hours before harvesting. Shortly after stimulation of synchronized primary hepatocytes with EGF, a rapid and sustained phosphorylation of ERK1/2 was observed (FIG. 20A). […]

ribosomal S6 subunit = test: Western blotting of S6 phosphorylation in synchronized hepatocytes; assay type: cell-based, rat; conditions: 50 μM
Method: as §4, §5

rat hepatocytes = test: Lactate dehydrogenase index and morphology in cultured rat hepatocytes; assay type: cell-based; conditions: 50 μM
Method: The % LDH leakage of the cells was calculated as the result of the ratio: [100×LDH activity in supernatant]/[LDH activity in (supernatant+cells)]
Medium samples were collected at 72 hours of culture and analyzed for their albumin content by an enzyme-linked immunosorbent assay (ELISA) as described (Dunn et al. Biotechnol Prog 7: 237-245, 1991) Cell morphology was analyzed by light microscopy (×100). Pictures were taken using an Optiphot Nikon Phase Contrast microscope (Cetec, Brussels, Belgium).

[3] = 1 μM TSA starting at 0 h or 4 h, day 4 and 7
[4] = 7-day conventionally cultured adult rat hepatocytes, 1 μm TSA

SMILES	cytotoxicity (LDH leakage) (hMSC [1]; 1 μM TSA)	cell lethality (LDH leakage) (hMSC [1]; 1 μM TSA, from day 13 (cocktail) and day 3 (sequential) on)	cytotoxicity (LDH leakage) (hMSC [1]; 5 and 25 μM TSA from day 0 until addition of HGF)	ALB secretion (hMSC [2]; cocktail + 1 μM TSA, not significant)	ALB levels (hMSC [2]; conditioned medium, sequential + TSA, day 17) [µg/mL]	difference in ALB secretion between cells with and without TSA (hMSC [2]; conditioned medium, sequential, TSA day 0 until HGF, day 15) [fold]	ALB secreted (hMSC [2]; day 15) [µg/mL]	ALB secreted (hMSC [2]; day 17) [µg/mL]	activity of CYP 1A1 versus EtOH-treated controls (CYP 1A1; [3])	CYP 1A1/2 Activity (CYP 1A1; [4])	activity of CYP 2B1/2 versus EtOH-treated controls (CYP 2B1/2; [3])	CYP 2B1 Activity (CYP 2B1/2; [4])	expression of Cx32 (Cx32)	ERK1/2 phosphorylation (ERK1/2)	S6 phosphorylation (ribosomal S6 subunit)	cytotoxicity (LDH leakage, morphology) (rat hepatocytes)
CC(C=CC(=O)NO)=CC(C)C(=O)c1ccc(N(C)C)cc1 (stereo not shown) [TSA]	did not cause immediate cell death	significantly downregulated cell lethality	immediate cell death	upregulation	2.26 ± 0.092	2.28	2.019 ± 0.144	3.456 ± 0.08	significantly higher	4.3 ± 0.6 pmol resorufin/minute mg microsomal protein	significantly higher	4.1 ± 0.7 pmol resorufin/minute mg microsomal protein	induces the expressions			
CN(C)c1ccc(C(=O)NCCCCC(=O)NO)cc1 [4-Me2N-BAVAH, 5-(4-dimethylaminobenzoyl)-aminovaleric acid hydroxamide]														increase in ERK1/2 phosphorylation	only a minor increase	not due to cytotoxicity
